# Measurements taken from paper PMC10823475, “Design, Synthesis, and Evaluation of Inhibitors of Hedgehog Acyltransferase” (Journal of Medicinal Chemistry, 2024).
# “And” between values parts separate entries of the source, which are not always exact repeats. Identical values can stand only once.
# Experiments:
# purified HHAT = target: T1, purified HHAT (Homo sapiens, UniProt Q5VTY9); test: Acyl-cLIP assay, inhibition of purified HHAT; assay type: biochemical; settings: for LLEAcyl-cLIP: from Acyl-cLIP IC50 and clogDpH7.4; for IC50: purified HHAT, read-out: Acyl-cLIP Assay IC50 (CI95)
# T1 construct: made in house
# Experimental: The inhibitory potency of all 50 compounds against purified HHAT was quantified using the acylation-coupled lipophilic induction of polarization (acyl-cLIP) assay recently developed in our lab, a universally applicable assay for high-throughput analysis of protein–lipid transferases and hydrolases.[31],[40] In brief, in this assay a fluorescently labeled peptide based on the N-terminal sequence of SHH is incubated with N-dodecyl β-D-maltoside (DDM) solubilized purified HHAT, palmitoyl-CoA, and HHAT inhibitors. Binding of the lipidated peptide product to the DDM micelle results in decreased tumbling rate and an increase in polarization of fluorescence emission, enabling facile quantification of HHAT activity. Initially, % HHAT inhibition was determined at 50 μM and 25 μM for all analogues. […] HHAT is a 12-pass TM protein,[14] and we considered whether lipophilicity might bias inhibition; pIC50 values were compared to calculated log D, which indicated no significant correlation (SI, Table S1 and Figure S2). We concluded that lipophilicity is not a general driver of HHAT inhibitory potency.
# The acyl-cLIP assay has been described previously.[40] Briefly, SHH-FAM peptide was diluted in buffer A (100 mM MES, 20 mM NaCl, 1 mM DTT, 1 mM TCEP, 0.1% BSA, pH 6.5) to a concentration of 2 μM. Palmitoyl-CoA (Sigma-Aldrich) was diluted in buffer A to 7.5 μM and recombinant HHAT (obtained by following the published protocol[14]) in buffer B (20 mM HEPES, 350 mM NaCl, 1% DDM, 5% glycerol, pH 7.3) diluted to 44 μg/mL. 1.5 μL of a 50 mM inhibitor DMSO stock was diluted with 18.5 μL of DMSO and further serial diluted (1:1). For each condition, 6 μL of the HHAT working stock and […] of the SHH-peptide working stock were mixed with 3 μL of the corresponding inhibitor concentration or DMSO vehicle. Twelve μL/well of this mixture was split into four wells of a black 384 well plate. To start the reaction, 8 μL of the Pal-CoA working stock were added to each well and fluorescence anisotropy and the total fluorescence recorded on an EnVision Xcite 2104 (PerkinElmer) over 30 min (emission filter 1 = FITC FP P-pol 535; emission filter 2 = FITC S-pol 535; excitation filter: FITC FP 480; measurement height = 6.5 mm; detector gain = 0; high concentration gain). Initial rate constants were determined by linear regression and normalized to DMSO control and samples with buffer B instead of HHAT. IC50 values were extracted from the corresponding dose response curves using a “sigmoidal dose response (variable slope)” model in GraphPad Prism 5 (GraphPad Software, Inc.).
# [1] = MTS assay, cytotoxicity (72 h); assay type: cell-based; settings: human, HEK293a SHH+ cells, 72 h; for CC50 at 72 h: read-out: MTS Assay (HEK293a SHH+) CC50 (CI95)
# Experimental: (§1) The survival of HEK293a SHH^+ cells is independent of HH signaling,[35] therefore, the cytotoxicity of analogues was tested using the MTS assay to investigate off-target toxicity. In this assay, HEK293a SHH^+ cells were treated with DMSO vehicle or varying concentrations of analogues for 72 h. Subsequently, a mixture of 1-methoxy phenazine methosulfate (PMS) and [3-(4,5-dimethylthiazol-2-yl)-5-(3-carboxymethoxyphenyl)-2-(4-sulfophenyl)-2H-tetrazolium] (MTS) was added to enable quantification of cell number via colorimetric analysis. […] Compounds 3, 17, 19, 32, 34, 38, and 45, which all contain a 2-((2-methylbutyl)amino)acetyl, were toxic to HEK293a SHH^+ cells, as were ureas 26, 40, and 41.
# (§2) HEK293a SHH^+ cells were plated at 5000 cells/well in a 96-well plate (Nunc) using a volume of 50 μL/well and cultured for 24 h as described. Cells were treated with 100 μL/well of either DMSO vehicle, Puromycin (2 μg/mL), or stated analogues (0.14–100 μM final) in DMEM supplemented with 10% FBS. After 72 h, 20 μL/well of a mixture of 1-methoxy phenazine methosulfate (PMS) and [3-(4,5-dimethylthiazol-2-yl)-5-(3-carboxymethoxyphenyl)-2-(4-sulfophenyl)-2H-tetrazolium] (MTS) at a ratio of MTS/PMS = 2/0.92 mg/mL in PBS was added and the plates were incubated for 3 h at 37 °C. Subsequently, the absorption at 490 nm was recorded using an EnVision Xcite 2104 (PerkinElmer), and the response was normalized to vehicle control and Puromycin treated samples. Dose response curves were fitted to a “sigmoidal dose response (variable slope)” model using GraphPad Prism 5 (GraphPad Software, Inc.).
# HEK293a SHH+ cells = test: MTS assay, cytotoxicity (72 h); assay type: cell-based; settings: for decrease in cell viability / cell survival: 12.5 μM
# Experimental: as §1, §2
# [2] = PAMPA parallel artificial membrane permeability assay; settings: for recovery at 16 h, 10 µM / Papp at 16 h, 10 μM: PAMPA
# Experimental: Passive diffusion was estimated using the PAMPA method. […] The donor plate was a MultiScreen-IP Plate with 0.45 μm hydrophobe Immobilon-P Membrane (Millipore, #MAIPNTR10) and the acceptor plate was a MultiScreen 96-well Transport Receiver Plate (Millipore, #MATRNPS50). […] Acceptor pH was 7.4. All samples were analyzed against an external, matrix-matched, standard curve by LC-MS/MS with a Waters (Elstree, Herts. UK) Acquity H-class LC system coupled to a Waters TQ-S mass spectrometer. Permeability values (cm/s) were calculated using the following equation: [drawing 2] and VD = volume of donor; VA = volume of acceptor; area = surface area of the membrane · porosity.
# [3] = pH 5, PAMPA Papp pH 5, donor pH 5, 10 µM
# [4] = pH 5, PAMPA Permeability Class pH 5, donor pH 5, 10 µM
# T1 sequence (Q5VTY9 whole entry): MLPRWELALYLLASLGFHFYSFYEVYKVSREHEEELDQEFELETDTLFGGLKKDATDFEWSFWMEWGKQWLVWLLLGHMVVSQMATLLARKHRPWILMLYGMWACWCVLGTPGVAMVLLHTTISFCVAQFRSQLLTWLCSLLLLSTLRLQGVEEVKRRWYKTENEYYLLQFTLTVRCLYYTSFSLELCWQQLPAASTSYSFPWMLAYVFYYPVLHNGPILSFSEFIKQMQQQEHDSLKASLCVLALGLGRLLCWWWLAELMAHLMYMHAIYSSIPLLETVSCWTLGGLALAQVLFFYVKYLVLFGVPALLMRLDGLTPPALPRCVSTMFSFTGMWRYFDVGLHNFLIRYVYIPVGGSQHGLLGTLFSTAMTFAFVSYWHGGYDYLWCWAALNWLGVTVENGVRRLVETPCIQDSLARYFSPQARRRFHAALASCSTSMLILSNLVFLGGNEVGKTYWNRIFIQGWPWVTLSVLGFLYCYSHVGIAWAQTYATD
Structure (SMILES),inhibition at 25 µM (purified HHAT) [%],inhibition at 50 µM (purified HHAT) [%],IC50 (purified HHAT),CC50 at 72 h [1] [µM],"viability at 72 h, 12.5 µM [1] [%]","viability at 72 h, 25 µM [1] [%]",toxicity to HEK293a SHH+ cells (HEK293a SHH+ cells),HHAT inhibition in the acyl-cLIP assay (purified HHAT),further results
CCC(C)CNCC(=O)N1CCc2sccc2C1COc1cccc(C)c1 (stereo not drawn) [Compound 3],52 ± 3,63 ± 4,1.44 µM,8.4,31 ± 2,12 ± 3,toxic,–,"LLEAcyl-cLIP (purified HHAT): 3.16; fold more potent than analogues 19, 32, and 34 (purified HHAT; meta-methyl on 4-position aromatic ring): 2–5 fold; decrease in cell viability / cell survival (HEK293a SHH+ cells): 69%"
CC(=O)N1CCc2sccc2C1c1ccccn1 (stereo not drawn) [Compound 18],49 ± 1,72 ± 1,24 µM and 23.7 µM,> 100,97 ± 2,98 ± 2,–,–,LLEAcyl-cLIP (purified HHAT): 2.73; decrease in cell viability / cell survival (HEK293a SHH+ cells): < 30%
"CCC(C)CNCC(=O)N1CCc2sccc2C1c1ccccc1O (stereo not drawn) [Compound 34, 1-(4-(2-Hydroxyphenyl)-6,7-dihydrothieno[3,2-c]pyridin-5(4H)-yl)-2-((2-methylbutyl)amino)ethan-1-one]",92 ± 1,93 ± 1,–,6.1,24 ± 1,20 ± 1,toxic,–,LLEAcyl-cLIP (purified HHAT): 3.35
"CC(C)CCNC(=O)N1CCc2ccccc2C1c1ccccc1 (stereo not drawn) [Compound 40, N-Isopentyl-1-phenyl-3,4-dihydroisoquinoline-2(1H)-carboxamide]",0,4 ± 5,> 25 µM,1.8,14 ± 4,12 ± 3,toxic,inactivity,–
"COCCNC(=O)N1CCc2ccccc2C1c1ccccc1 (stereo not drawn) [Compound 41, N-(2-Methoxyethyl)-1-phenyl-3,4-dihydroisoquinoline-2(1H)-carboxamide]",0,27 ± 3,> 25 µM,20.2,83 ± 3,53 ± 2,toxic,inactivity,–
"CCC(C)CNCC(=O)N1CCc2cc(OC)c(OC)cc2C1c1ccccc1 (stereo not drawn) [Compound 44, 1-(6,7-Dimethoxy-1-phenyl-3,4-dihydroisoquinolin-2(1H)-yl)-2-((2-methylbutyl)amino)ethan-1-one]",7 ± 3,8 ± 2,> 100 µM,> 100,96 ± 3,95 ± 5,–,complete loss of HHAT inhibition,–
"C=CC(=O)N1CCn2cccc2C1c1ccccc1 (stereo not drawn) [Compound 46, 1-(1-Phenyl-3,4-dihydropyrrolo[1,2-a]pyrazin-2(1H)-yl)prop-2-en-1-one]",7 ± 1,12 ± 1,> 25 µM,> 100,96 ± 2,97 ± 2,–,loss of potency,–
"CC(=O)N1CCCCC1c1ccccc1 (stereo not drawn) [Compound 47, 1-(2-Phenylpiperidin-1-yl)ethan-1-one]",-14 ± 2,-3 ± 2,> 25 µM,> 50,95 ± 2,93 ± 5,–,–,–
"C=CC(=O)N1CCCCC1c1ccccc1 (stereo not drawn) [Compound 48, 1-(2-Phenylpiperidin-1-yl)prop-2-en-1-one]",-2 ± 3,-3 ± 2,> 25 µM,> 100,93 ± 2,90 ± 2,–,–,–
"C=CC(=O)N1CCCCC1c1ccccn1 (stereo not drawn) [Compound 49, 1-(2-(Pyridin-2-yl)piperidin-1-yl)prop-2-en-1-one]",8 ± 1,3 ± 1,> 25 µM,> 100,96 ± 2,89 ± 2,–,–,–
"CCC(C)CNCC(=O)N1CCCCC1c1ccccn1 (stereo not drawn) [Compound 50, 2-((2-Methylbutyl)amino)-1-(2-(pyridin-2-yl)piperidin-1-yl)ethan-1-one]",8 ± 1,3 ± 1,> 25 µM,> 100,88 ± 2,86 ± 2,–,–,–
"O=c1ccc2ccccc2o1 [Coumarin, reference compound]",–,–,–,–,–,–,–,–,"recovery at 16 h, 10 µM ([2]; pH 5): 99%; Papp at 16 h, 10 μM [2, 3]: 124 ×10⁻⁶ cm/s; Papp at 16 h, 10 μM [2, 4]: > 20 ×10⁻⁶ cm/s; recovery at 16 h, 10 µM ([2]; pH 6.5): 99%; recovery at 16 h, 10 µM ([2]; pH 7.4): 114%; PAMPA Papp pH 6.5 ([2]; donor pH 6.5, 10 µM): >eqm; PAMPA Permeability Class pH 6.5 ([2]; donor pH 6.5, 10 µM): >eqm; PAMPA Papp pH 7.4 ([2]; donor pH 7.4, 10 µM): >eqm; PAMPA Permeability Class pH 7.4 ([2]; donor pH 7.4, 10 µM): >eqm"
"CC(C)(C)NCC(O)COc1cccc2c1CC(O)C(O)C2 (stereo not drawn) [Nadolol, reference compound]",–,–,–,–,–,–,–,–,"recovery at 16 h, 10 µM ([2]; pH 5): 97%; Papp at 16 h, 10 μM [2, 3]: < 0.4 ×10⁻⁶ cm/s; Papp at 16 h, 10 μM [2, 4]: < 5 ×10⁻⁶ cm/s; Papp at 16 h, 10 μM ([2]; pH 6.5, PAMPA Papp pH 6.5, donor pH 6.5, 10 µM): < 0.4 ×10⁻⁶ cm/s; Papp at 16 h, 10 μM ([2]; pH 6.5, PAMPA Permeability Class pH 6.5, donor pH 6.5, 10 µM): < 5 ×10⁻⁶ cm/s; recovery at 16 h, 10 µM ([2]; pH 7.4): 135%; Papp at 16 h, 10 μM ([2]; pH 7.4, PAMPA Papp pH 7.4, donor pH 7.4, 10 µM): < 0.3 ×10⁻⁶ cm/s; Papp at 16 h, 10 μM ([2]; pH 7.4, PAMPA Permeability Class pH 7.4, donor pH 7.4, 10 µM): < 5 ×10⁻⁶ cm/s"
